ChEMBL document CHEMBL2010730, “An example of designed multiple ligands spanning protein classes: dual MCH-1R antagonists/DPPIV inhibitors” (Bioorg Med Chem Lett, 2012)

Columns and labels:
[1] = target: T1, Melanin-concentrating hormone receptor 1 (Homo sapiens, UniProt Q99705); test: Antagonist activity at human MCH1R expressed in CHO cells assessed as inhibition of MCH-induced response at 5 uM; format: functional, cell-based
[2] = target: T1, Melanin-concentrating hormone receptor 1; test: Antagonist activity at human MCH1R expressed in CHO cells assessed as inhibition of MCH-induced response; format: functional, cell-based
[3] = target: T2, Dipeptidyl peptidase 4 (Homo sapiens, UniProt P27487); test: Inhibition of human recombinant DPP4 using H-Gly-Pro-7-amino-4-methylcoumarin as substrate assessed as inhibition of 7-amino-4-methylcoumarin formation after 30 mins by fluorimetry
[4] = target: T2, Dipeptidyl peptidase 4; test: Inhibition of DPP4
[5] = target: T1, Melanin-concentrating hormone receptor 1; test: Antagonist activity at human MCH1R expressed in forskolin-stimulated CHO cells assessed as inhibition of MCH-induced cAMP accumulation after 90 mins; format: functional, cell-based
[6] = target: Dipeptidyl peptidase 9 (Homo sapiens, UniProt Q86TI2); test: Inhibition of DPP9
[7] = target: Dipeptidyl peptidase 8 (Homo sapiens, UniProt Q6V1X1); test: Inhibition of DPP8
[8] = Lipophilicity, log D of the compound at pH 7.4; format: physicochemical; settings: buffer
[9] = target: Voltage-gated inwardly rectifying potassium channel KCNH2 (Homo sapiens, UniProt Q12809)
Sequence of Voltage-gated inwardly rectifying potassium channel KCNH2 (Q12809 whole entry): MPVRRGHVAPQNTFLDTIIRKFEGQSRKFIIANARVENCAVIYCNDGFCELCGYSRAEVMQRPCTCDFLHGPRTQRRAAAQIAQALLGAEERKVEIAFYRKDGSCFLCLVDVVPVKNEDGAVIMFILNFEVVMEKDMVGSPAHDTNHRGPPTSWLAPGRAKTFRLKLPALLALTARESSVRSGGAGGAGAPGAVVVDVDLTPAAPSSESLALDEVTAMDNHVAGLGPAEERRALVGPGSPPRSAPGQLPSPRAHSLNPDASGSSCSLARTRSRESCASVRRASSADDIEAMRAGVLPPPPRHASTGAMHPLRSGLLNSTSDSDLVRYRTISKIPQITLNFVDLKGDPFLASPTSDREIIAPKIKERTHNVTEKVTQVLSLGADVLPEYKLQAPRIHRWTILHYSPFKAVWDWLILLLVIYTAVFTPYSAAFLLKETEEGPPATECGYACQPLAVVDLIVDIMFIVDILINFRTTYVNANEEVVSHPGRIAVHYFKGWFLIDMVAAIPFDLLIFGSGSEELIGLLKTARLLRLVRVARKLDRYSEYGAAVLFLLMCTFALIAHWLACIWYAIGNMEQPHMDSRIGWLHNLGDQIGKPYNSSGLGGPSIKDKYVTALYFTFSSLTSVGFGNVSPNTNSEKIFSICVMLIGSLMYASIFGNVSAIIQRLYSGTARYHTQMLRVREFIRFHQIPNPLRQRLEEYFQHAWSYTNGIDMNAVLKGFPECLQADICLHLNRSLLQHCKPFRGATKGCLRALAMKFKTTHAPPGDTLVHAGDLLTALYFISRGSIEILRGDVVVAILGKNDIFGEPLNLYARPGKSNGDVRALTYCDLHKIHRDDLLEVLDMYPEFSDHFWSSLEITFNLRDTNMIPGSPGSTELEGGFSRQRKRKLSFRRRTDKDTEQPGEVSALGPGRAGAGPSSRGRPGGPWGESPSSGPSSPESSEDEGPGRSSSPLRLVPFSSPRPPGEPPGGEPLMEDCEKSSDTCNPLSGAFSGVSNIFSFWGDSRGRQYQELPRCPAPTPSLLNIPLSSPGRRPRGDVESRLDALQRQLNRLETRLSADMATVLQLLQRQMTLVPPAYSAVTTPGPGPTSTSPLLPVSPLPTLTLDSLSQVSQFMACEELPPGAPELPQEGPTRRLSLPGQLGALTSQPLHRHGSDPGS

T2 sequence (P27487 whole entry): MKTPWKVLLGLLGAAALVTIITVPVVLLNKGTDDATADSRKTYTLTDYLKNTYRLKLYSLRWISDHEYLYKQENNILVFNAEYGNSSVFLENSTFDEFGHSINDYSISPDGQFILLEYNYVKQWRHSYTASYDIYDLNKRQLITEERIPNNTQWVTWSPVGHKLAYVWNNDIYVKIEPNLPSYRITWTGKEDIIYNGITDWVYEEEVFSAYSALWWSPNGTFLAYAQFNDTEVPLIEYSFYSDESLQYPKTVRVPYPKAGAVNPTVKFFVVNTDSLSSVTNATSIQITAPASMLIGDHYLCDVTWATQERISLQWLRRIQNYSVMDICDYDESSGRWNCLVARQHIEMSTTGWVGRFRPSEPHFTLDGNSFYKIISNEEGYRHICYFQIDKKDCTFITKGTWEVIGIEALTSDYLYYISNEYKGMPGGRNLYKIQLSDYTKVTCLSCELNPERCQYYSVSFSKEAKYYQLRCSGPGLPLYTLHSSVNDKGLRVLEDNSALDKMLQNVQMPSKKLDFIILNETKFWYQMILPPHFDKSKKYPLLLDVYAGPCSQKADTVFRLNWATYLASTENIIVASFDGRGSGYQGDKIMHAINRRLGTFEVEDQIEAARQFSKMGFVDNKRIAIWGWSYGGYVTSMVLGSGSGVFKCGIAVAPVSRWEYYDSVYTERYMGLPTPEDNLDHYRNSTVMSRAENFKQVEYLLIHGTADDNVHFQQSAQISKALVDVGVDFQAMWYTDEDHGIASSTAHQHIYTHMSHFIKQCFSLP
T1 sequence (Q99705 whole entry): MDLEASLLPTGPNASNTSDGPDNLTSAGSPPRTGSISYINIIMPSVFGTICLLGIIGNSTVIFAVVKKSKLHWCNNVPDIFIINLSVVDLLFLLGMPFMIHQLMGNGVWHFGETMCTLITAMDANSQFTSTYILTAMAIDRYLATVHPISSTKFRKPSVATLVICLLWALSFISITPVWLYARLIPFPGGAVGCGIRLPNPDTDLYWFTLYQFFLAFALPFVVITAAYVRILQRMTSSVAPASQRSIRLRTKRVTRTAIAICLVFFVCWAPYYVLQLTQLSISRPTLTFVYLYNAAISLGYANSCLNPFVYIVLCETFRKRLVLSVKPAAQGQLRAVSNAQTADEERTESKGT
Sequence of Dipeptidyl peptidase 9 (Q86TI2 whole entry): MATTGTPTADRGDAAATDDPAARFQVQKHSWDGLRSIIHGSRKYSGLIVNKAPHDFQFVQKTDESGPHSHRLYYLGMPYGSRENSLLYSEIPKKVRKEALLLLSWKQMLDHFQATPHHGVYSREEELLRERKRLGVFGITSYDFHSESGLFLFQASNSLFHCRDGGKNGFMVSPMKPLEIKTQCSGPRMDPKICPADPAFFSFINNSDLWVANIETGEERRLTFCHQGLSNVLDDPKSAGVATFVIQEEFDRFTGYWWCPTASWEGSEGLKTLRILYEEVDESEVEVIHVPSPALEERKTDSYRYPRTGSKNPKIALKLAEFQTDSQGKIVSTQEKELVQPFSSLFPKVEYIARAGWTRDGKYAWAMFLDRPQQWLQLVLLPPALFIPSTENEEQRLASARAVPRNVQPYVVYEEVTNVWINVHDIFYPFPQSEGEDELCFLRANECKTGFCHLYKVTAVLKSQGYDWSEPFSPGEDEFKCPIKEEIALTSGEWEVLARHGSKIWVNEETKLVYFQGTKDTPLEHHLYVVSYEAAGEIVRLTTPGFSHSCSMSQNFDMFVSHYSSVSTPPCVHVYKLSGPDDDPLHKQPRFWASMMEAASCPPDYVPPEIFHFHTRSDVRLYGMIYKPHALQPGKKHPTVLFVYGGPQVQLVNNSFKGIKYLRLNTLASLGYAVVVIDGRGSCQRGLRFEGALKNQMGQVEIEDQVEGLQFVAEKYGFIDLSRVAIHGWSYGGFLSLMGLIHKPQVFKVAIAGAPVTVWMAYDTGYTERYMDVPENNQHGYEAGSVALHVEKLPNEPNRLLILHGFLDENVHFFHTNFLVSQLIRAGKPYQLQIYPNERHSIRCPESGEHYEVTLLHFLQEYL
Sequence of Dipeptidyl peptidase 8 (Q6V1X1 whole entry): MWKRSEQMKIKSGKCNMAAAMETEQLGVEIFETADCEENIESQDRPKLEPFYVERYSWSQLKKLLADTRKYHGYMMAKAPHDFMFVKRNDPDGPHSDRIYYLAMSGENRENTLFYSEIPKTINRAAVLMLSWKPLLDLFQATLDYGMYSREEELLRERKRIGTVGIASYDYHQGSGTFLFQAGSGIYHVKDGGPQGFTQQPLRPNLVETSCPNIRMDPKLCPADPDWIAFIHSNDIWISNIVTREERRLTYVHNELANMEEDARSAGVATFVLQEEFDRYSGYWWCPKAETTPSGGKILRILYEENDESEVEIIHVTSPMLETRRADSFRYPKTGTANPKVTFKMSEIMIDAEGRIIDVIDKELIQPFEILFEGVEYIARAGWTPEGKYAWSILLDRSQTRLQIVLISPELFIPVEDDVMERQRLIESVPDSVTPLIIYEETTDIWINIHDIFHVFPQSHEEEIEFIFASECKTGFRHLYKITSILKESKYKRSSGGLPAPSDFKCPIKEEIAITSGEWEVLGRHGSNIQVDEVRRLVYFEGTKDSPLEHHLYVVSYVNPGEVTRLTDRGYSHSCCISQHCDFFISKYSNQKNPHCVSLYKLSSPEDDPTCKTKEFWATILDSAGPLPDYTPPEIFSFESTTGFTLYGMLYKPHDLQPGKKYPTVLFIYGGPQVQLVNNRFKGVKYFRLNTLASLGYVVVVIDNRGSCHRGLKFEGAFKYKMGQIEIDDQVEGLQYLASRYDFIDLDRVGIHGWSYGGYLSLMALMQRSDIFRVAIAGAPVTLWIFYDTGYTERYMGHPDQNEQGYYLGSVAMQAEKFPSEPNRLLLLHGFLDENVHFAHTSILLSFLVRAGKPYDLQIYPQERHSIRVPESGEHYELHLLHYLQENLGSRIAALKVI

Row | Structure (SMILES) | inhibition [1] [%] | IC50 [2] [nM] | IC50 [3] [nM] | further results
1 | CCCCOc1ccc2c(c1)CCN(c1ccc(N3C[C@H](c4cc(F)ccc4F)[C@@H](N)C3)nc1)C2=O | 44 | 4000 |  | 
2 | N[C@H]1CN(c2cc(-c3ccccc3)ncn2)CC[C@@H]1c1cc(F)c(F)cc1F |  |  |  | Ki [4]: 6 nM
3 | N[C@H]1CN(c2ccc(CCNC(=O)c3ccc(OCC4CC4)cc3)cn2)C[C@@H]1c1cc(F)ccc1F | 43 | 3800 |  | 
4 | N[C@@H]1CCN(c2ccc(-n3ccc(OCc4ccccc4)cc3=O)cn2)C1 |  | 20 | > 100000 | Ki [5]: 6 nM; IC50 [6]: > 100000 nM; IC50 [7]: > 100000 nM
5 | N[C@H]1CN(c2ccc(-n3ccnc(CCCc4ccccc4)c3=O)cn2)C[C@@H]1c1cc(F)ccc1F | 52 | > 3000 |  | 
6 | CC(C)COc1ccc(CC(=O)Nc2ccc(N3C[C@H](c4cc(F)ccc4F)[C@@H](N)C3)nc2)cc1 | 35 |  |  | 

Now from value to compound, other results behind:

Row | inhibition [1] [%] | IC50 [2] [nM] | IC50 [3] [nM] | Structure (SMILES) | further results
7 | 104 | 140 | 1650 | N[C@H]1CN(c2ccc(-n3ccc(OCc4ccccc4)cc3=O)cn2)C[C@@H]1c1cc(F)ccc1F | 
8 |  | 110 | 1100 | N[C@H]1CN(c2ccc(-n3ccc(OCc4ccccc4)cc3=O)cn2)C[C@@H]1c1cc(F)c(F)cc1F | logD [8]: 3.4; IC50 [9]: 6100 nM
9 | 39 |  |  | N[C@H]1CN(c2ccc(-n3ccc(-c4ccccc4)cc3=O)cn2)C[C@@H]1c1cc(F)ccc1F | 
10 |  | 440 | 350 | N[C@H]1CN(c2ccc(-n3ccc(OCc4ccccc4)cc3=O)cn2)CC[C@@H]1c1cc(F)c(F)cc1F | IC50 [6]: > 50000 nM; IC50 [7]: > 50000 nM
